In publication doi:10.1101/2025.02.11.637513v1 (bioRxiv, 2025):
Several values for one entry are separate records, joined by “and”; a condition that tells them apart may be missing. Identical values can stand only once. Non-standard residues stand in square brackets, D forms with d. No end group written: not given here. Bip = N[C@@H](Cc1ccc(-c2ccccc2)cc1)C(=O)O; 2Nal = N[C@@H](Cc1ccc2ccccc2c1)C(=O)O; Tic = O=C(O)[C@@H]1Cc2ccccc2CN1; Cha = N[C@@H](CC1CCCCC1)C(=O)O

What was measured:
Experiment in all cases: tetrapeptide-ACC substrate cleavage kinetics
Format in all cases: biochemical
human caspase-1 = biological target: T1, human caspase-1 (Homo sapiens, UniProt P29466); settings: Ac-P4-P3-P2-Asp-ACC substrate, 0.05-500 μM, 2-15 nM enzyme, 37°C, triplicate
T1 sequence (P29466 120-297 limits assumed): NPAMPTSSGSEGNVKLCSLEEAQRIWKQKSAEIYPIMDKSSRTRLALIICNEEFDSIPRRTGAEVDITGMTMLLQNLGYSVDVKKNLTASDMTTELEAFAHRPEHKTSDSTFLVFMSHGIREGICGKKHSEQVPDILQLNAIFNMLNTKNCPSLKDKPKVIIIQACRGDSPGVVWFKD
T1 sequence (P29466 317-404 limits assumed): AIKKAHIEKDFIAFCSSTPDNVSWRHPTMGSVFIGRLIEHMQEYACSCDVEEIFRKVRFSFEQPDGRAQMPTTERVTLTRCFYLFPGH

human caspase-4 = biological target: T2, human caspase-4 (Homo sapiens, UniProt P49662); settings: Ac-P4-P3-P2-Asp-ACC substrate, 0.05-500 μM, 35-200 nM enzyme, 37°C, triplicate
T2 sequence (P49662 81-270 limits assumed): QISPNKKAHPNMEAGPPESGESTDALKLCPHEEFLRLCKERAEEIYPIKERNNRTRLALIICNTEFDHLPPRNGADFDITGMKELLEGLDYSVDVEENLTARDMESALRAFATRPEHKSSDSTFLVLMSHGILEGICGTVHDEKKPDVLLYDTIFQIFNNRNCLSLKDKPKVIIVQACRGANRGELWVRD
T2 sequence (P49662 290-377 limits assumed): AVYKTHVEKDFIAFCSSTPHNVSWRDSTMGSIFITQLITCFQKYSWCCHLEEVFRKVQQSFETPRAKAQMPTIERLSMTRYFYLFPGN

human caspase-5 = biological target: T3, human caspase-5 (Homo sapiens, UniProt P51878); settings: Ac-P4-P3-P2-Asp-ACC substrate, 0.05-500 μM, 20-250 nM enzyme, 37°C, triplicate
T3 sequence (P51878 137-327 limits assumed): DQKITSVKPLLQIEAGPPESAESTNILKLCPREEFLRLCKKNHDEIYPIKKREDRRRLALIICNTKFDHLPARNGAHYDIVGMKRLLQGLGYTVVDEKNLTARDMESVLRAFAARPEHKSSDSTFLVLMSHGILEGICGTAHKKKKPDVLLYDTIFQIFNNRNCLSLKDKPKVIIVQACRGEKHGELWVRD
T3 sequence (P51878 347-434 limits assumed): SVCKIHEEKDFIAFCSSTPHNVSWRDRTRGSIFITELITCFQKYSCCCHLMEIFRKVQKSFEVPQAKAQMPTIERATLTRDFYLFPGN

human caspase-3 = biological target: T4, human caspase-3 (Homo sapiens, UniProt P42574); settings: Ac-P4-P3-P2-Asp-ACC substrate, 0.05-500 μM, 3-35 nM enzyme, 37°C, triplicate
T4 sequence (P42574 29-175 limits assumed): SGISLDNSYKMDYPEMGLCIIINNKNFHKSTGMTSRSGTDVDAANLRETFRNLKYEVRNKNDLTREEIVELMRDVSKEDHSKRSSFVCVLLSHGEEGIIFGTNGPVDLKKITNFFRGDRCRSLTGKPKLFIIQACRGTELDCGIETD
T4 sequence (P42574 176-277 limits assumed): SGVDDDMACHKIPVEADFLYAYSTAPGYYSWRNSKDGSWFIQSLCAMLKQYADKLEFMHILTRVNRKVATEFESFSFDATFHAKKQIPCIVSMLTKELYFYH

human caspase-7 = biological target: T5, human caspase-7 (Homo sapiens, UniProt P55210); settings: Ac-P4-P3-P2-Asp-ACC substrate, 0.05-500 μM, 40-400 nM enzyme, 37°C, triplicate
T5 sequence (P55210 24-198 limits assumed): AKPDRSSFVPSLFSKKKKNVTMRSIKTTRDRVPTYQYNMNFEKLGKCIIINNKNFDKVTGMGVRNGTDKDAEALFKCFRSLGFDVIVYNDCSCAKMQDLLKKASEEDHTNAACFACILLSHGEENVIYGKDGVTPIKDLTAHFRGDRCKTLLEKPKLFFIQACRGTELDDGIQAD
T5 sequence (P55210 207-303 limits assumed): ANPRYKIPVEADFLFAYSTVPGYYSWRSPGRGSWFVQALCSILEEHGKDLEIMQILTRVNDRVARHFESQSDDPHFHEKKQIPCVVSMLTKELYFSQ

human caspase-8 = human caspase-8 (Homo sapiens, UniProt Q14790); settings: Ac-P4-P3-P2-Asp-ACC substrate, 0.05-500 μM, 6-42 nM enzyme, 37°C, triplicate
human caspase-9 = biological target: T6, human caspase-9 (Homo sapiens, UniProt P55211); settings: Ac-P4-P3-P2-Asp-ACC substrate, 0.05-500 μM, 20-150 nM enzyme, 37°C, triplicate
T6 sequence (P55211 1-315 limits assumed): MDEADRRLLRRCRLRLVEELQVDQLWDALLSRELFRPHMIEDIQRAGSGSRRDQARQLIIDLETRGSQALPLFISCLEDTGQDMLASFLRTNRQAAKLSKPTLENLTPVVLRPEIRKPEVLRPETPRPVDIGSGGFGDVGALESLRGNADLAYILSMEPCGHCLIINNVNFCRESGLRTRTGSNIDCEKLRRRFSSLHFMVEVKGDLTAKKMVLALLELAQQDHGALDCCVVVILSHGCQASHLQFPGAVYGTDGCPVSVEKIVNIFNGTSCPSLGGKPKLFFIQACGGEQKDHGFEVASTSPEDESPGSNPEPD
T6 sequence (P55211 331-416 limits assumed): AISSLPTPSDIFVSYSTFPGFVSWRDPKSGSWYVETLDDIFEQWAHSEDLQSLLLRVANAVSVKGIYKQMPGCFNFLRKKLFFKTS

human caspase-8, sequence (Q14790 217-374 limits assumed): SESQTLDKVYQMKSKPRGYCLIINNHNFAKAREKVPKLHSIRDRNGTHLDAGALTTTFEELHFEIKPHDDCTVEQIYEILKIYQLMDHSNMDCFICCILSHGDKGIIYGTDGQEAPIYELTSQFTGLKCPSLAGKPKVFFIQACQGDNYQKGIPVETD
human caspase-8, sequence (Q14790 385-479 limits assumed): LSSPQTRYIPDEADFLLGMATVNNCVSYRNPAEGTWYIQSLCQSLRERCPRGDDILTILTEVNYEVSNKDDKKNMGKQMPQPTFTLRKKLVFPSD

Substance | kcat/KM caspase-1 (human caspase-1) | kcat/KM caspase-4 (human caspase-4) | kcat/KM caspase-5 (human caspase-5) | kcat/KM caspase-3 (human caspase-3) | kcat/KM caspase-7 (human caspase-7) | kcat/KM caspase-8 (human caspase-8) | kcat/KM caspase-9 (human caspase-9)
W(Me)Q[Tic]D | 268 600 M^-1s^-1 | 11 300 M^-1s^-1 | 14 500 M^-1s^-1 | 4 340 M^-1s^-1 | 290 M⁻¹ s⁻¹ | 2 580 M^-1s^-1 | 1 140 M^-1s^-1
Trp-Thr-ProAsp | 110 000 M^-1s^-1 | 1 920 M^-1s^-1 | 3 180 M^-1s^-1 | 700 M⁻¹ s⁻¹ | 30 M⁻¹ s⁻¹ | 960 M⁻¹ s⁻¹ | 110 M⁻¹ s⁻¹
Phe-Leu-Thr-Asp | 50 000 M^-1s^-1 | 450 M⁻¹ s⁻¹ | 1 190 M^-1s^-1 | 3 490 M^-1s^-1 | 450 M⁻¹ s⁻¹ | 3 050 M^-1s^-1 | 460 M⁻¹ s⁻¹
Tyr-Lys-Met-Asp | 9 700 M^-1s^-1 | 180 M⁻¹ s⁻¹ | < 10 M⁻¹ s⁻¹ | 50 M⁻¹ s⁻¹ | 10 M⁻¹ s⁻¹ | 210 M⁻¹ s⁻¹ | 50 M⁻¹ s⁻¹
Leu-Glu-Ser-Asp | 20 000 M^-1s^-1 | 3 390 M^-1s^-1 | 13500 M⁻¹ s⁻¹ | 950 M⁻¹ s⁻¹ | 20 M⁻¹ s⁻¹ | 19 200 M^-1s^-1 | 3550 M⁻¹ s⁻¹
[Cha]EHD | 184 300 M^-1s^-1 and 113 800 M^-1s^-1 | 21 340 M^-1s^-1 and 25 050 M^-1s^-1 | 34 640 M^-1s^-1 and 48 140 M^-1s^-1 | 6 390 M^-1s^-1 and 6 530 M^-1s^-1 | 370 M⁻¹ s⁻¹ and 380 M⁻¹ s⁻¹ | 28 040 M^-1s^-1 and 27 690 M^-1s^-1 | 8 770 M^-1s^-1 and 9 270 M^-1s^-1
[2Nal]THD | 146 200 M^-1s^-1 | 2 450 M^-1s^-1 | 7 860 M^-1s^-1 | 830 M⁻¹ s⁻¹ | 70 M⁻¹ s⁻¹ | 1 990 M^-1s^-1 | 5 660 M^-1s^-1
Val-Asp-His-Asp | 6 950 M^-1s^-1 | 880 M⁻¹ s⁻¹ | 4 830 M^-1s^-1 | 19 860 M^-1s^-1 | 910 M⁻¹ s⁻¹ | 16 670 M^-1s^-1 | 6 220 M^-1s^-1
Pro-Tyr-His-Asp | 10 900 M^-1s^-1 | 330 M⁻¹ s⁻¹ | 1 110 M^-1s^-1 | 2 110 M^-1s^-1 | 90 M⁻¹ s⁻¹ | 4 490 M^-1s^-1 | 11 080 M^-1s^-1
V[Bip]HD | 9 100 M^-1s^-1 | 1 640 M^-1s^-1 | 380 M⁻¹ s⁻¹ | 15 820 M^-1s^-1 | 190 M⁻¹ s⁻¹ | 2 710 M^-1s^-1 | 1 790 M^-1s^-1
Val-Gly-His-Asp | 2 000 M^-1s^-1 | 480 M⁻¹ s⁻¹ | 390 M⁻¹ s⁻¹ | 7 360 M^-1s^-1 | 90 M⁻¹ s⁻¹ | 1 110 M^-1s^-1 | 3 800 M^-1s^-1
Tyr-Lys-Ala-Asp | 10 800 M^-1s^-1 | 140 M⁻¹ s⁻¹ | 180 M⁻¹ s⁻¹ | < 10 M⁻¹ s⁻¹ | < 10 M⁻¹ s⁻¹ | 210 M⁻¹ s⁻¹ | 50 M⁻¹ s⁻¹
Trp-Lys-Gln-Asp | 41 600 M^-1s^-1 | 320 M⁻¹ s⁻¹ | 160 M⁻¹ s⁻¹ | < 10 M⁻¹ s⁻¹ | < 10 M⁻¹ s⁻¹ | 30 M⁻¹ s⁻¹ | 10 M⁻¹ s⁻¹
Ile-Glu-Thr-Asp | 1 430 M^-1s^-1 | 1 010 M^-1s^-1 | 2 850 M^-1s^-1 | 21 200 M^-1s^-1 | 3 400 M^-1s^-1 | 95 400 M^-1s^-1 | 2 300 M^-1s^-1
Val-hGlu-Thr(Bzl)-Asp | 21 700 M^-1s^-1 | 1 840 M^-1s^-1 | 5 430 M^-1s^-1 | 163 200 M^-1s^-1 | 16 800 M^-1s^-1 | 85 540 M^-1s^-1 | 6 770 M^-1s^-1
